Data as given in ChEMBL document CHEMBL4177590, “Design, synthesis and biological evaluation of WZ4002 analogues as EGFR inhibitors” (Bioorg Med Chem Lett, 2017).

Key:
NCI-H460 [1] = test: Potency index, ratio of gefitinib IC50 to compound IC50 for human NCI-H460 cells; format: functional
NCI-H460 [2] = test: Potency index, ratio of WZ4002 IC50 to compound IC50 for human NCI-H460 cells; format: functional

Structure (SMILES): COc1cc(N2CCN(C)CC2)ccc1Nc1ncc(Cl)c(Oc2ccccc2NC(=O)CCO)n1
- Ratio IC50 (NCI-H460 [1]): 6 - 10
- Ratio IC50 (NCI-H460 [2]): 6 - 10

Structure (SMILES): COc1cc(N2CCN(C)CC2)ccc1Nc1ncc(Cl)c(Oc2ccccc2NC(=O)CO)n1
- Ratio IC50 (NCI-H460 [1]): 6 - 10
- Ratio IC50 (NCI-H460 [2]): 6 - 10

Structure (SMILES): COc1cc(N2CCN(C)CC2)ccc1Nc1ncc(Cl)c(Oc2ccccc2NC(=O)COCc2ccccc2)n1
- Ratio IC50 (NCI-H460 [1]): 6 - 10
- Ratio IC50 (NCI-H460 [2]): 6 - 10

Structure (SMILES): COc1cc(N2CCN(C)CC2)ccc1Nc1ncc(Cl)c(Oc2ccccc2NC(=O)CCOCc2ccccc2)n1
- Ratio IC50 (NCI-H460 [1]): 6 - 10
- Ratio IC50 (NCI-H460 [2]): 6 - 10
